Experimental data published in patent US4250097A, “Compositions for and a method of preventing diabetic complications” (Syntex (U.S.A.) Inc., priority 1978, dated 1981).

Tests used:
Aldose reductase = molecular target: T1, Aldose reductase (Oryctolagus cuniculus, UniProt P15122); test: Aldose reductase inhibition, in vitro (loss of absorbance at 340 millimicrons, glyceraldehyde substrate, NADPH); type: biochemical, New Zealand rabbits (lens); details: pH 6.0, 37° C; for inhibition at 100 µM: 1 × 10^-4 molar concentration of xanthone compound; for inhibition at 10 µM: 1 × 10^-5 molar concentration of xanthone compound; for inhibition at 1 µM: 1 × 10^-6 molar concentration of xanthone compound
T1 construct: Aldose reductase is isolated by homogenizing the lens in 3 volumes of water; from tissue; host or cells: lens of mature New Zealand rabbits
Experimental: In brief, a solution of the enzyme is added to an appropriately buffered solution containing glyceraldehyde. The loss of ultra violet absorbance at 340 millimicrons is indicative of the rate of reaction of the aldehyde with the enzyme as previously reported by Hayman and Kinoshita, (J. Biol. Chem: 240, 877, (1965)).
Fifty lenses are obtained from mature, New Zealand, rabbits and are immediately frozen on dry ice. Aldose reductase is isolated by homogenizing the lens in 3 volumes of water for 30 seconds in a Waring blender followed by centrifugation at 10,000 xg for 15 minutes to remove insoluble material. Saturated ammonium sulfate is added to the supernatant fluid to 40% saturation. The suspension is centrifuged after 15 minutes, and the supernatant liquid recovered. Additional protein is removed by increasing the ammonium sulfate concentration to 50%, and centrifuging the mixture. Aldose reductase is precipitated from the 50% saturated solution by the addition of powdered ammonium sulfate to 75% saturation and is recovered by centrifugation. The precipitated enzyme is assayed by following the ultraviolet absorbance at 340 millimicrons after dissolving the enzyme in 0.05 M sodium chloride. The enzyme (0.50 ml) is added to a quartz cuvette containing phosphate buffer (0.067 M, pH 6.0), NADPH (2×10^-5 M), and water to a final volume of 3 ml and the cuvette inserted in a conventional ultra-violet spectrometer. The reaction is started by the addition of substrate (glyceraldehyde) to the contents of the cuvette and is followed by the determination of loss of absorbance at 340 millimicrons for 2 minutes at 37° C. The reaction rate observed is usually linear for at least 5 minutes.
All results are shown in Tables I, II, and III as % inhibition, i.e. based on a non-inhibited control sample, no inhibition, 0%.

lens aldose reductase = details: in vitro; cited from earlier work

Structure (SMILES)	inhibition at 100 µM (Aldose reductase) [%]	inhibition at 10 µM (Aldose reductase) [%]	inhibition at 1 µM (Aldose reductase) [%]	inhibition of lens aldose reductase (potency in words) (lens aldose reductase)	% Inhibition (Aldose reductase; molar concentration printed (Table II)) [%]
CCCCCCCCOc1cc([S+](C)[O-])cc2c(=O)c3cc(C(=O)O)ccc3oc12 (stereo not drawn) [CH3 1 n-C8 H11 O]	96	83	42		
CC1OC(Oc2c(-c3cc(O)c(O)c(O)c3)oc3cc(O)cc(O)c3c2=O)C(O)C(O)C1O (stereo not drawn) [myrecetrin]				among the most potent	
CCCCCOc1cc([S+](C)[O-])cc2c(=O)c3cc(C(=O)O)ccc3oc12 (stereo not drawn) [CH3 1 n-C5 H11 O]	95	70	35		
O=C(O)c1ccc2oc3ccc(S(=O)(=O)CCO)cc3c(=O)c2c1 [HO(CH2)2 2 H, 7-(2-hydroxyethylsulfonyl)xanthone-2-carboxylic acid]		83			
C[S+]([O-])c1cc(S(C)(=O)=O)cc2c(=O)c3cc(C(=O)O)ccc3oc12 (stereo not drawn) [CH3 2 CH3 SO]		50			
COc1cc(OC)c2oc3ccc(C(=O)O)cc3c(=O)c2c1 [CH3 O CH3 O]		39	25		
CCCCN(C)S(=O)(=O)c1ccc2oc3ccc(C(=O)O)cc3c(=O)c2c1	95	75	25		
COc1ccc2oc3ccc(C(=O)O)cc3c(=O)c2c1 [CH3 O H]	81	39	17		
CSc1cc(OC(C)C)cc2c(=O)c3cc(C(=O)O)ccc3oc12	85	60	30		
CC(C)CCOc1cc([S+](C)[O-])cc2c(=O)c3cc(C(=O)O)ccc3oc12 (stereo not drawn)	90	65	25		
CSc1cc(OC(C)C)c2oc3ccc(C(=O)O)cc3c(=O)c2c1	85	67	17		
CC1OC(Oc2c(-c3ccc(O)c(O)c3)oc3cc(O)cc(O)c3c2=O)C(O)C(O)C1O (stereo not drawn) [quercetrin]				among the most potent	
CSc1cc(C(C)C)c2oc3ccc(C(=O)O)cc3c(=O)c2c1	97	67	17		
CCC(=O)c1ccc2oc3ccc(C(=O)O)cc3c(=O)c2c1 [CH3 CH2 H]		54	50		63
O=C(O)c1ccc2oc3ccc(OCC(O)CO)cc3c(=O)c2c1 (stereo not drawn)		81	54		
O=c1c(O)c(-c2ccc(O)c(O)c2)oc2cc(O)cc(O)c12 [quercetin]				among the most potent	
COc1cccc2c(=O)c3cc(C(=O)O)ccc3oc12 [H CH3 O]	78	50	28		
CC(C)N(C)S(=O)(=O)c1ccc2oc3ccc(C(=O)O)cc3c(=O)c2c1	89	69	17		
O=C(O)c1ccc2oc3ccc(S(=O)(=O)O)cc3c(=O)c2c1 [H 3 H]	70	43			
CC(C)Oc1ccc2oc3ccc(C(=O)O)cc3c(=O)c2c1	89	73	3		
O=C(O)c1ccc2oc3ccc(S(=O)(=O)N(CCO)CCO)cc3c(=O)c2c1 [(HOCH2 CH2)2 N 2 H]		67			
